Measurements: patent publication US20250288561A1, “NEZULCITINIB FOR DELIVERY BY NEBULIZED ORAL INHALATION” (THERAVANCE BIOPHARMA R&D IP, LLC, priority 2022, published 2025)

Key:
IL-6 signaling = assay: Inhibition of cytokine signaling; type: cell-based
IFNγ secretion = assay: Mixed lymphocyte reaction assay; type: cell-based
From the text: The mixed lymphocyte reaction assay is an in-vitro assay that mimics transplant rejection.

NK cells = assay: Earlier phase 1 clinical trial: absolute NK cell counts after multiple dosing; type: in vivo, human; conditions: any dose level (1, 3, or 10 mg)
Method: Compound 1 was evaluated in a phase 1 clinical trial and dosed in humans through nebulized inhalation at 1 mg, 3 mg, and 10 mg for up to 7 days. […] The pharmacokinetics of inhaled compound 1 are consistent with low plasma exposures after inhaled administration. […] Additionally, absolute NK cell counts were evaluated after multiple-dosing to assess the potential for systemic pharmacologic effects associated with JAK inhibition by compound 1. […] The lack of reduction in NK cell counts is also consistent with the lack of systemic JAK inhibition. […] Other systemically mediated hematological changes associated with JAK inhibition, including neutrophil and hemoglobin reductions as well as lipid changes, were not observed with inhaled administration of compound 1.

Abl2 = Abl2 (Homo sapiens, UniProt P42684); assay: Abelson kinase inhibition; type: biochemical
[1] = Phase 1 open-label study: safety and tolerability of single inhaled nezulcitinib doses under supplemental oxygenation scenarios; type: in vivo, human
From the text: Part B: assessed the safety and tolerability of nezulcitinib following single inhaled doses administered in the setting of various supplemental oxygenation scenarios in healthy participants.
Safety was monitored through physical examinations including, at a minimum, examination of respiratory, cardiovascular, and gastrointestinal systems, with the option for further focused examination of additional systems as necessary based on reported symptoms/AEs, vital signs, 12-lead safety ECGs, spirometry, body weight monitoring, pulse oximetry, clinical laboratory tests (including, but not limited to, hematology, clinical chemistry profile, coagulation, and urinalysis), and AEs.
AEs were coded using the most current version of Medical Dictionary for Regulatory Activities (MedDRA®).
Summaries of administration-emergent adverse events (AEAEs) were presented by SOC, preferred term, and the frequency and percentage of participants reporting each observed event. The frequency of participants who experience AEAEs was summarized overall and by study part and administration. AEs were also summarized by relationship to administration (study drug) and severity.
All clinical laboratory results, 12-lead safety ECGs, spirometry measurements, pulse oximetry, vital signs measurements, and their change from baseline, were summarized by study part, administration, and time point of collection.
Safety (i.e., physical examinations, vital signs, 12-lead safety ECGs, spirometry, clinical laboratory tests, and AEs) were assessed throughout the study; blood, urine, and expired air samples were collected for safety assessments. Blood oxygenation levels were monitored via pulse oximetry prior to and during administration of supplemental oxygen. Discontinued participants were not replaced.

Chain of Abl2 (P42684 whole entry): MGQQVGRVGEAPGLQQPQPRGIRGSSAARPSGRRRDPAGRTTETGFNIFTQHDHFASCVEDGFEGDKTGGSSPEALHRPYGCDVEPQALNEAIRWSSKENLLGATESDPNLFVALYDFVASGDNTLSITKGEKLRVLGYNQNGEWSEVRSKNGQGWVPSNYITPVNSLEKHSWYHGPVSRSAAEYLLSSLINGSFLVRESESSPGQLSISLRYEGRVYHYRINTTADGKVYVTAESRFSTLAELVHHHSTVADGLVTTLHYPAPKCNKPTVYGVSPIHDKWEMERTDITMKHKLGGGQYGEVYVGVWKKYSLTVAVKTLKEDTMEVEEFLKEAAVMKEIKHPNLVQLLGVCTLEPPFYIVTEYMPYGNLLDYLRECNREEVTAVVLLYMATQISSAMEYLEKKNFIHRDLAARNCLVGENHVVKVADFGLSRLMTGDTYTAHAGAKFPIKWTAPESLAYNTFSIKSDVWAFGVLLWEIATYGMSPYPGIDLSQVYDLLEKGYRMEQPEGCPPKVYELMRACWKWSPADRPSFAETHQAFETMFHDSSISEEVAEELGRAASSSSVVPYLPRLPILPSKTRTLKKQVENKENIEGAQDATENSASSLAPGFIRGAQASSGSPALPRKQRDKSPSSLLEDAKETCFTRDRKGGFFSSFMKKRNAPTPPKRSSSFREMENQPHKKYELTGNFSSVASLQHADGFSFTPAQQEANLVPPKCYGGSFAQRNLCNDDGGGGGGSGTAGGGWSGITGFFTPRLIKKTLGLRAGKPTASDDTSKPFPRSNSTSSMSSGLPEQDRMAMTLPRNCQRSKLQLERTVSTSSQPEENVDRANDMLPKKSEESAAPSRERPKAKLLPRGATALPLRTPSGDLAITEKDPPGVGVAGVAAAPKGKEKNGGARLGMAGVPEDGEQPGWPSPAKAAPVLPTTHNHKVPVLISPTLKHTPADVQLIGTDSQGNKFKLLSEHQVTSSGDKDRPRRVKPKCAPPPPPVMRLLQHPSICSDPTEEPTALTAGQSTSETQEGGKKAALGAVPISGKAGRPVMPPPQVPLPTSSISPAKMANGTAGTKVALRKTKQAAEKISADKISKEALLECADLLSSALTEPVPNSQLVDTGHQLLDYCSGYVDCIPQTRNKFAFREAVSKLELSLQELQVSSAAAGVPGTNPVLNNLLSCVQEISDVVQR

## CCc1cc(O)ccc1-c1ccc2c(-c3nc4c([nH]3)CN(C(C)C)[C@H](C(=O)N3CC(N(C)C)C3)C4)n[nH]c2c1 [Compound 1, (S)-(3-(dimethylamino)azetidin-1-yl)(2-(6-(2-ethyl-4-hydroxyphenyl)-1H-indazol-3-yl)-5-isopropyl-4,5,6,7-tetrahydro-3H-imidazo[4,5-c]pyridin-6-yl)methanone]
IL-6 signaling
  inhibition of IL-6 signaling: shown to inhibit
IFNγ secretion
  inhibition of IFNγ secretion: effectively inhibit
NK cells
  absolute NK cell counts relative to baseline: No reductions in NK cells were observed
Abl2
  inhibition of Abl2: potently inhibit
[1]; 2 of 14 subjects, nasal congestion, epistaxis, considered not related to study drug
  adverse events, subjects: 14.3%
[1]; all administrations
  safety laboratory measures, electrocardiograms, vital signs, pulse oximetry, spirometry: no clinically relevant changes
[1]; all adverse events
  severity of adverse events: mild severity
